Molecules are shown by their SMILES.

The values that follow come from patent publication US20250115571A1, “OXOPIPERAZINE DERIVATIVES” (Inthera Bioscience AG, priority 2017, published 2025).

One assay relates to PC3. Nature of the assay: 9-day colony survival assay (CFA). Particulars: Homo sapiens, PC-3, 216 h, PC3 (prostate), read-out: GI50 (50% growth inhibition). The assay is classed as cell-based.
The next assay has as its system A549. Nature of the assay: 9-day colony survival assay (CFA). Particulars: Homo sapiens, 216 h, A549 (lung), read-out: GI50 (50% growth inhibition). It is filed as cell-based.
The subject of the next assay is CaSki. The assay is described as follows: 9-day colony survival assay (CFA). It is filed as cell-based. As to conditions: Homo sapiens, Ca-Ski, 216 h, CaSki (cervix), read-out: GI50 (50% growth inhibition). The source says: Cell culture. CaSki cells (cervical cancer) were obtained from CLS GmbH, Eppelheim, Germany (cat #300145) and subcultured in ready-to-use RPMI1640 Media (CLS #820700) after addition of “Antibiotic Antimycotic Solution” (Sigma-Aldrich, St Louis, USA) at 1:100 dilution. The cells were expanded, and aliquots kept frozen in liquid nitrogen according to manufacturer's instructions; tested for mycoplasma contamination and genotyped (Microsynth AG, Balgach, Switzerland). Once thawed, aliquots were passaged every second or third day at a seed density of 20′000 cells/cm^2; and used for a maximum of twenty passages. For passaging, cell culture flasks were rinsed twice with Ca++/Mg++-free Phosphate-Buffered Saline (DPBS, CLS #860015) and incubated with Accutase (CLS #830100) for 15 min at 37° C. Cells were resuspended in a four-fold volume of ready-to-use RPMI, centrifuged at 300 g for ten minutes, the supernatant discarded and the cells resuspended in ready-to-use RPMI1640 by pipetting up and down five times with a serological pipette. Cell density was determined with a Via-1 Cassette (Chemometec, Allerod, Denmark) on a Nucleocounter NC 3000 (Chemometec). Where not stated, consumables and chemicals were purchased from well-known suppliers.
Preparation of the cells for CFA. Cell culture flasks were rinsed twice with DPBS and incubated with Accutase for 15 min at 37° C. Cells were resuspended in a four-fold volume of ready-to use RPMI, centrifuged at 300 g for ten minutes, the supernatant discarded and the cells resuspended in ready-to-use RPMI1640 by pipetting up and down ten times with a serological pipette. Cell density was determined with a Via-1 Cassette on a Nucleocounter NC 3000. The required amount of cells was first diluted 1:10 in ready-to-use RPMI; cells pipetted five times up-down with a serological pipette; and the 1:10 solution added to the final volume needed for the whole assay setup. Cells were mixed again by pipetting up and down twenty times with a serological pipette. The cell density used for the experiment was of 140 cells/ml.
Seeding. Cells were seeded row-wise in 12-well plates, while triplicates were treated column-wise (i.e. all the first rows were seeded first, then the second rows, and finally the third rows). One and a half ml cell suspension solution (a total of 210 cells) were added per well.
Treatment. Compound stock solutions were prepared at a concentration of 30 mM in 50% DMSO/50% water; and diluted in the same solution so that the volume added to the wells was of 2.5 μl and the final DMSO well concentration of 0.08%. Untreated cells (negative controls) were incubated in a) medium only; and b) 0.08% DMSO. […] The plates were swirled gently after addition of the compounds and the cells incubated for nine days at 37° C. Culture incubation solutions were replaced after five days.
Staining. Colonies were washed twice with ice-cold DPBS and fixed on ice with 1 ml ice-cold 10% methanol solution for 30 min. The methanol solution was removed and colonies incubated with 0.1% Crystal Violet/DBPS for 20 min at room temperature. The wells were rinsed consecutively with 1.5, 1, and 0.5 ml water at room temperature and let dry.
Destaining and data evaluation. […] Absorbance was measured at 600 nm with a SpectraMax M2e reader (Molecular Devices, Sunnyvale, CA, USA). Percentage of colony formation was calculated from the average of the well triplicates compared to the untreated DMSO controls after subtraction of blank values. […]

In a further assay the test system is HCT116. The assay is described as follows: 9-day colony survival assay (CFA). Particulars: Homo sapiens, HCT-116, 216 h, HCT116 (colon), read-out: GI50 (50% growth inhibition). It is filed as cell-based.
Assay [1] relates to hormone-refractory DU-145 human prostate cancer cells. The assay is described as follows: Cell-derived xenograft mouse model for prostate cancer (DU-145 CDX). It is filed as in vivo. Particulars: 3 mg/kg, p.o. QD × 4 weeks. The protocol: Male BALB/c nude mice (7-9 weeks of age) were injected with hormone-refractory DU-145 human prostate cancer cells. The cells were inoculated subcutaneously into the left flank of 48 mice. When tumors reached a mean volume of approximately 105 mm^3, mice were randomly assigned to eight treatment groups of each six mice (TABLE 12). Body weights were measured three times weekly prior to the initiation of dosing and daily thereafter. Tumor burden was assessed by caliper measurement three times weekly. Dosing breaks were applied when tolerability issues arose (body weight loss>10%). The study was terminated 4 weeks post first dosing. The experiment was performed in the Crown Bioscience Ltd. (Beijing) testing facility (Ground Floor, Light Muller Building, Changping Sector of Zhongguancun Scientific Park, No. 21 Huoju Road, Changping District, Beijing, CHIN).

Assay [2] relates to MKN45 human gastric adenocarcinoma cells. Nature of the assay: Cell-derived xenograft mouse model for gastric cancer (MKN45 CDX). As to conditions: 6 mg/kg, QD, p.o. The assay is classed as in vivo. The protocol: Female BALB/c nude mice (8-9 weeks of age) were injected with MKN45 human gastric adenocarcinoma cells. The cells were inoculated subcutaneously into the left flank of 48 mice. When tumors reached a mean volume of approximately 103 mm^3, mice were randomly assigned to eight treatment groups of each six mice (TABLE 16). Body weights were measured three times weekly prior to the initiation of dosing and daily thereafter. Tumor burden was assessed by caliper measurement twice weekly. Dosing breaks were applied when tolerability issues arose (body weight loss>10%). The study was terminated four weeks post first dosing. The experiment was performed in the Crown Bioscience Ltd. (Beijing) testing facility (Ground Floor, Light Muller Building, Changping Sector of Zhongguancun Scientific Park, No. 21 Huoju Road, Changping District, Beijing, CHN).

For the compound `CC(C)C[C@@H]1NCCN([C@@H](CC(C)C)C(=O)N2CCC3(C[C@@H]2C)OCC(CN2CCC(C)CC2)CO3)C1=O` (stereo partly drawn) [Compound 253, (3S)-1-[(2S)-4-methyl-1-oxo-1-[(3s,6s,8S)-8-methyl-3-[(4-methylpiperidin-1-yl)methyl]-1,5-dioxa-9-azaspiro[5.5]undec-an-9-yl]pentan-2-yl]-3-(2-methylpropyl)piper-azin-2-one (^≠), isomer Z], the GI50 in the assay with PC3 came out at 4 nM; in the assay on A549, 7 nM; in the assay on CaSki, 4.5 nM; in the assay with HCT116, 2 nM. Besides, in assay [1], the “Tumor Size day 35 (Mean ± SEM)” value was 480 ± 49 mm^3. The “T/C (tumor-to-control ratio, volume/volume)” value in assay [1] (day 35) was found to be 69.3%. The “Tumor Size day 29” value in assay [2] (MKN45 CDX, female BALB/c nude mice, Mean ± SEM) turned out to be 506.5 ± 71.0 mm^3. Also, in assay [2] (day 29, tumor-to-control ratio (volume/volume)), the T/C is given as 42.6%.
